Data set [1] concerns the target T1, ZHD (zearalenone hydrolase) (Clonostachys rosea, UniProt Q8NKB0, V26I/P69A/V87I/K148N/M168L/D170V/K198Q/L200V).
T1 construct: gene zhd101; full length; natural clone from genomic DNA of a CGMCC strain; extra N-terminal MD; E. coli BL21(DE3); dimer
Description: HPLC of remaining ZEN. The data set is classed as biochemical. To be noted: 100 mM Tris-HCl pH 9.5, 30 °C, 15 nM ZHD, 1-50 µM ZEN.

Data set [2] deals with the molecule itself. Description: SEC; HiLoad 16/60 Superdex 200 prep-grade column, last step of the purification; oligomeric state from the elution position.

By Km is commonly meant the concentration of substrate that gives half-maximal velocity. On to `C[C@H]1CCCC(=O)CCC/C=C/c2cc(O)cc(O)c2C(=O)O1` [ZEN, zearalenone], for which the Km in data set [1] came to 3.5 µM.

B1: Zearalenone hydrolase (ZHD), C-terminally His6-tagged (enzyme, Clonostachys rosea)
chain: MDMRTRSTISTPNGITWYYEQEGTGPDIVLVPDGLGECQMFDSSVSQIAAQGFRVTTFDMPGMSRSAKAPAETYTEVTAQKLASYVISILDALDIKHATVWGCSSGASTVVALLLGYPDRIRNAMCHELPTKLLDHLSNTAVLEDEEISNILANVMLNDVSGGSEAWQALGVEVHARLHKNYPVWARGYPRTIPPSAPVQDVEALRGKPLDWTVGAATPTESFFDNIVTATKAGVNIGLLPGMHFPYVSHPDVFAKYVVETTQKHLWNSSSVDKLAAALE
notes: zearalenone hydrolase (ZHD) cloned from genomic DNA of a Clonostachys rosea strain (CGMCC); natural strain variant with eight amino-acid variations compared with GenBank ALI16790.1; 14-amino-acid linker between ZHD and the C-terminal His6 tag; The His6 is written under tags, the linker as a part; The substitutions count against GenBank ALI16790.1, not necessarily against the UniProt entry; also …
One may read the stoichiometry N as the number of molecules, sites or subunits per partner or assembly. Regarding B1, in data set [2], the “stoichiometry N” value is 2.

(Values after PMC5505240, “The structure of a complex of the lactonohydrolase zearalenone hydrolase with the hydrolysis product of zearalenone at 1.60 Å resolution” (Acta Crystallographica. Section F, Structural Biology …, 2017).)
